In patent publication US9192656B2, “Methods and compositions for the treatment of cancer” (QUINTESSENCE BIOSCIENCES, INC., priority 2006, dated 2015):

Assays:
[1] = test system: non-small cell lung cancer cell line (A549); assay: In vivo inhibition of tumor growth, A549 xenograft; set-up: species or system human tumor cells in nude mice; conditions: for Starting volume: at start
Protocol: (§1) Cells from a non-small cell lung cancer cell line (A549) were grown in nine T175 flasks in F12K media and 10% fetal calf serum until the cells were confluent. 4.5×10^6 cells (in 100 microliters) were injected into the right rear flank of 4-5 week old male homozygous (nu/nu) nude mice (Harlan, Madison Wis.). Tumors were allowed to grow to an average size of ≧75 mm^3 before treatments were initiated. Animals of each tumor type, with the properly sized tumors, were divided into treatment groups, including one set of animals treated weekly with vehicle (phosphate buffered saline, PBS). The vehicle and the test agents were all administered by intraperitoneal injection. Each animal was weighed twice a week during treatment. The tumors were measured twice weekly using calipers. Tumor volume (mm^3) was determined by using the formula for an ellipsoid sphere:
[formula] The efficacy of wild type human RNase 1 is shown relative to cisplatin. The RNase 1 was administered at 75 mg per kg of body weight of the animal once a week (75 mg/kg 1×wk), while the cisplatin was used at 6 mg/kg once a week. The value of n represents the number of animals in the specific treatment arm of the experiment.
(§2) The percent tumor growth inhibition (% TGI) is calculated by: […]
The xenograft model of this example was set up with the human non-small cell lung cancer cell line (A549) as in the previous examples. The efficacy of wild type human RNase 1 is shown relative to tarceva. The RNase 1 was administered at 75 mg per kg of body weight of the animal (75 mg/kg 1×wk) or 150 mg/kg 1×wk. Tarceva was given orally with doses of 50 mg/kg twice a week. The value of n represents the number of animals in the specific treatment arm of the experiment.

[2] = test system: human prostate cancer cell line (DU145); assay: In vivo inhibition of tumor growth, DU145 xenograft; set-up: species or system human tumor cells in nude mice; conditions: for Starting volume: at start
Protocol: as §1, with “sphere: […]” for “sphere:”
as §2
This xenograft model was set up as in the previous example except that a human prostate cancer cell line (DU145) was used. The efficacy of wild type human RNase 1 is shown relative to docetaxel. The RNase 1 was administered at 75 mg per kg of body weight of the animal (75 mg/kg 1×wk), while the docetaxel was used at 8 mg/kg once a week. The value of n represents the number of animals in the specific treatment arm of the experiment.
(§3) The xenograft model of this example was set up as in the previous example except that a human prostate cancer cell line (DU145) was used. The efficacy of wild type human RNase 1 is shown. The RNase 1 was administered at 75 mg per kg of body weight of the animal once per week (75 mg/kg 1×wk). The value of n represents the number of animals in the specific treatment arm of the experiment.
as §3, with “example.” for “example except that a human prostate cancer cell line (DU145) was used.”, “three different doses: (1) 15” for “75”, “(15” for “(75”, “1×wk), (2) 75 mg/kg 1×wk, or (3) 300 mg/kg 1×wk.” for “1×wk).”

[3] = test system: human breast cancer cell line (MDA-MB-231); assay: In vivo inhibition of tumor growth, MDA-MB-231 xenograft; set-up: species or system human tumor cells in nude mice; conditions: Example 10, Table 14, female mice, RNase 1 75 mg/kg 1×wk, doxorubicin 3 mg/kg once per week
Protocol: as §1, with “sphere: […]” for “sphere:”
as §2
The xenograft model of this example was set up as in the previous example except that a human breast cancer cell line (MDA-MB-231) and female mice were used. The efficacy of wild type human RNase 1 is shown relative to doxorubicin. The RNase 1 was administered at 75 mg per kg of body weight of the animal once per week (75 mg/kg 1×wk), while the doxorubicin was given at 3 mg/kg once per week. The value of n represents the number of animals in the specific treatment arm of the experiment.

tumor = conditions: previous experiments, Cancer Res., 64:4870 [2004]; cited from earlier work
[4] = Example 3, Table 7, i.p., RNase 1 75 mg/kg 1×wk, cisplatin 6 mg/kg once a week
[5] = Example 6, Table 10, 75 mg/kg 1×wk
[6] = Example 6, Table 10, 150 mg/kg 1×wk
[7] = Example 4, Table 8, RNase 1 75 mg/kg 1×wk, docetaxel 8 mg/kg once a week
[8] = Example 8, Table 12, 75 mg/kg 1×wk
[9] = Example 9, Table 13, set up as in the previous example, 15 mg/kg 1×wk
[10] = Example 9, Table 13, set up as in the previous example, 75 mg/kg 1×wk
[11] = Example 9, Table 13, set up as in the previous example, 300 mg/kg 1×wk

Substance: Wild type human RNase 1: wild type human ribonuclease 1 (human pancreatic RNase), SEQ ID NO:1
- % TGI [1, 4]: 51%
- (Final − start) [1, 4]: 149 mm^3
- (Final − start)/Control [1, 4]: 0.49
- Final volume [1, 4]: 217 mm^3
- Starting volume [1, 4]: 68 mm^3
- % TGI [1, 5]: 63%
- (Final − start) [1, 5]: 300 mm^3
- (Final − start)/Control [1, 5]: 0.37
- Final volume [1, 5]: 378 mm^3
- Starting volume [1, 5]: 78 mm^3
- % TGI [1, 6]: 66%
- (Final − start) [1, 6]: 276 mm^3
- (Final − start)/Control [1, 6]: 0.34
- Final volume [1, 6]: 355 mm^3
- Starting volume [1, 6]: 79 mm^3
- % TGI [2, 7]: 80%
- (Final − start) [2, 7]: 478 mm^3
- (Final − start)/Control [2, 7]: 0.20
- Final volume [2, 7]: 539 mm^3
- Starting volume [2, 7]: 61 mm^3
- % TGI [2, 8]: 77%
- (Final − start) [2, 8]: 607 mm^3
- (Final − start)/Control [2, 8]: 0.23
- Final volume [2, 8]: 669 mm^3
- Starting volume [2, 8]: 62 mm^3
- % TGI [2, 9]: 0%
- (Final − start) [2, 9]: 1136 mm^3
- (Final − start)/Control [2, 9]: 1
- Final volume [2, 9]: 1246 mm^3
- Starting volume [2, 9]: 110 mm^3
- % TGI [2, 10]: 61%
- (Final − start) [2, 10]: 445 mm^3
- (Final − start)/Control [2, 10]: 0.39
- Final volume [2, 10]: 559 mm^3
- Starting volume [2, 10]: 114 mm^3
- % TGI [2, 11]: 43%
- (Final − start) [2, 11]: 652 mm^3
- (Final − start)/Control [2, 11]: 0.57
- Final volume [2, 11]: 766 mm^3
- Starting volume [2, 11]: 114 mm^3
- % TGI [3]: 64%
- (Final − start) [3]: 50 mm^3
- (Final − start)/Control [3]: 0.36
- Final volume [3]: 121 mm^3
- Starting volume ([3]; at start): 71 mm^3
- reduction in tumor volume (tumor): did not demonstrate a reduction in tumor volume
